The results in this text go back to ChEMBL document CHEMBL6127087 (Eur J Med Chem, 2024).

pIC50, pKd: −log10 of the molar value. Active and inactive are the calls of the source. The rule behind the calls is not given here.

Data set [1] concerns the target T1, P2Y purinoceptor 14 (Homo sapiens) (UniProt Q15391).
T1 sequence (whole entry): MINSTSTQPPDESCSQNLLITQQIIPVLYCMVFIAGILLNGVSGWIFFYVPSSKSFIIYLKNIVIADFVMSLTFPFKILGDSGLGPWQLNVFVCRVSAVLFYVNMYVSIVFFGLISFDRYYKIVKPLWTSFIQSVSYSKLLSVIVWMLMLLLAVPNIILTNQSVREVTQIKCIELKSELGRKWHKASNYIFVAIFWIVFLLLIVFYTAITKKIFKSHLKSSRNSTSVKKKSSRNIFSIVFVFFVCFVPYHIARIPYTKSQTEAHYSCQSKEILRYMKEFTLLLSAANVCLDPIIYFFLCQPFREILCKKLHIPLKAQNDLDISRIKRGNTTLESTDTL
In words: Antagonist activity at human P2Y14R stably expressed in HEK293 cells assessed as inhibition of UDPG-induced cAMP accumulation preincubated with compound for 30 mins followed by UDPG addition by cAMP-GloTM assay. The format is functional, cell-based.

Data set [2] concerns Mus musculus. The data set can be described thus: Anti-inflammatory activity in LPS-induced male C57BL/6 mouse model of acute […] injury assessed as reduction in infiltration of immune cells by measuring decrease in WBC count at 2 to 6 mg/kg, IG preadministered with compound for 7 days followed by LPS administration and measured after 24 hrs. The class given is functional, organism-based. The note with it: dose 2-6 mg/kg, time 8.0 day.

In data set [3] the test system is Mus musculus. The data set can be described thus: Anti-inflammatory activity in LPS-induced male C57BL/6 mouse model of acute […] injury assessed as inhibition of CCL2 release at 2 to 6 mg/kg, IG preadministered with compound for 7 days followed by LPS administration and measured after 24 hrs by ELISA. The class given is functional, organism-based. The note with it: dose 2-6 mg/kg, time 8.0 day. A general note: In an ELISA, binding on a coated surface is turned into a signal by an enzyme label.

The nature of data set [4]: Metabolic stability in human liver microsomes assessed as intrinsic clearance preincubated for 10 mins followed by NADPH addition and measured upto 60 mins by LC-MS/MS analysis. The class given is ADME, Microsome. Particulars: time < 70 min, read-out: CLH. A general note: Liver microsomes are vesicles of endoplasmic reticulum, rich in cytochrome P450 enzymes.
The nature of data set [5]: Cmax in male Sprague-Dawley rat at 10 mg/kg, iv measured after 24 hrs by LC-MS/MS analysis. The class given is ADME, organism-based. Particulars: male, Sprague-Dawley, in vivo, read-out: Cmax.
Data set [6] has as its target Voltage-gated inwardly rectifying potassium channel KCNH2 (Homo sapiens, UniProt Q12809). The data set can be described thus: Inhibition of human ERG by PatchXpress analysis. The class given is toxicity.
Another data set addresses P2Y purinoceptor 6 (Homo sapiens, UniProt Q15077). The data set can be described thus: Binding affinity to P2Y6R (unknown origin) assessed as dissociation constant by SPR analysis. (In SPR one partner is held on a chip, and binding of the other changes the refractive index at the surface.)
The test system of data set [7] is Mus musculus. In words: Anti-inflammatory activity in LPS-induced male C57BL/6 mouse model of acute […] injury assessed as reduction in infiltration of immune cells by measuring decrease in neutrophil count at 2 to 6 mg/kg, IG preadministered with compound for 7 days followed by LPS administration and measured after 24 hrs. The note with it: dose 2-6 mg/kg, time 8.0 day. The format is functional, organism-based.

Data set [8] can be described thus: Cmax in male Sprague-Dawley rat at 20 mg/kg, po measured after 24 hrs by LC-MS/MS analysis. The format is ADME, organism-based. The note with it: male, Sprague-Dawley, in vivo, read-out: Cmax.
The next data set has as its system HEK-293T. The data set can be described thus: Cytotoxicity against HEK293T cells assessed as reduction in cell survival at >10 uM incubated for 12 to 24 hrs by CCK8 assay. The format is toxicity, cell-based. Particulars: human, time 12-24 hrs.
In a further data set the target is Cytochrome P450 2C9 (Homo sapiens, UniProt P11712). The data set can be described thus: Inhibition of CYP2C9 in human liver microsomes using diclofenac as substrate preincubated for 10 mins followed by NADPH addition and measured after 10 mins by LC-MS/MS analysis. The format is ADME, Microsome.
Sequence of Cytochrome P450 2C9 (P11712 whole entry): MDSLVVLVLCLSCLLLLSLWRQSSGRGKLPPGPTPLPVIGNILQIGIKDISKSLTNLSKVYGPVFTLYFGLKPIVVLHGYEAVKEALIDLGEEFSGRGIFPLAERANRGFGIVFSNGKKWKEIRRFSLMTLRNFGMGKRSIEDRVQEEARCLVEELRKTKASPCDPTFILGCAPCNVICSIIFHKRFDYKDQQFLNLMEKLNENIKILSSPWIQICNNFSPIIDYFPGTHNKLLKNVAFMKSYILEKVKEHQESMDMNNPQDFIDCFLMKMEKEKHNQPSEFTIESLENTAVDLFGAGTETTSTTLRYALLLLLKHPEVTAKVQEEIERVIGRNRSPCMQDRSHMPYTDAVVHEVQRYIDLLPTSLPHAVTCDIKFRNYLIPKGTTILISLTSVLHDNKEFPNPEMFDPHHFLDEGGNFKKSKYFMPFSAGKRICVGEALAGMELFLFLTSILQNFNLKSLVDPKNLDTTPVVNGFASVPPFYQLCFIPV
The subject of data set [9] is Mus musculus. The data set can be described thus: Anti-inflammatory activity in LPS-induced male C57BL/6 mouse model of acute […] injury assessed as reduction in dsDNA level in BALF at 2 to 6 mg/kg, IG preadministered with compound for 7 days followed by LPS administration and measured after 24 hrs by ELISA. The format is functional, organism-based. Particulars: dose 2-6 mg/kg, time 8.0 day.

Data set [10] relates to Mus musculus. The data set can be described thus: Anti-inflammatory activity in LPS-induced male C57BL/6 mouse model of acute […] injury assessed as reduction in IL-1beta level in BALF at 2 to 6 mg/kg, IG preadministered with compound for 7 days followed by LPS administration and measured after 24 hrs by ELISA. The format is functional, organism-based. The note with it: dose 2-6 mg/kg, time 8.0 day.

Data set [11] concerns the target P2Y purinoceptor 1 (Homo sapiens) (UniProt P47900). In words: Antagonist activity at human P2Y1R stably expressed in HEK293 cells assessed as inhibition of ADP-induced IP3 accumulation preincubated with compound for 30 mins followed by ADP addition by ELISA. The class given is functional, cell-based.
A short description of data set [12]: Half-life in male Sprague-Dawley rat at 20 mg/kg, po measured after 24 hrs by LC-MS/MS analysis. The class given is ADME, organism-based. Particulars: male, Sprague-Dawley, in vivo.
Data set [13] has as its system Mus musculus. The data set can be described thus: Anti-inflammatory activity in LPS-induced male C57BL/6 mouse model of acute […] injury assessed as absence of lesion in lung parenchyma at 2 to 6 mg/kg, IG preadministered with compound for 7 days followed by LPS administration and measured after 24 hrs by H and E staining based histopathological analysis. The format is functional, organism-based. The note with it: dose 2-6 mg/kg, time 8.0 day.

Data set [14] concerns Mus musculus. The data set can be described thus: Anti-inflammatory activity in LPS-induced male C57BL/6 mouse model of acute […] injury assessed as inhibition of CXCL9 mRNA expression at 2 to 6 mg/kg, IG preadministered with compound for 7 days followed by LPS administration and measured after 24 hrs by RT-PCR analysis. The class given is functional, organism-based. Particulars: dose 2-6 mg/kg, time 8.0 day.

For data set [15], the system named is Mus musculus. The data set can be described thus: Anti-inflammatory activity in LPS-induced male C57BL/6 mouse model of acute […] injury assessed as improvement in pulmonary edema by measuring reduction in wet to dry ratio of lung at 2 to 6 mg/kg, IG preadministered with compound for 7 days followed by LPS administration and measured after 24 hrs. The class given is functional, organism-based. The note with it: dose 2-6 mg/kg, time 8.0 day.

Another data set deals with T2, Cytochrome P450 1A2 (Homo sapiens, UniProt P05177).
T2 sequence (P05177 whole entry): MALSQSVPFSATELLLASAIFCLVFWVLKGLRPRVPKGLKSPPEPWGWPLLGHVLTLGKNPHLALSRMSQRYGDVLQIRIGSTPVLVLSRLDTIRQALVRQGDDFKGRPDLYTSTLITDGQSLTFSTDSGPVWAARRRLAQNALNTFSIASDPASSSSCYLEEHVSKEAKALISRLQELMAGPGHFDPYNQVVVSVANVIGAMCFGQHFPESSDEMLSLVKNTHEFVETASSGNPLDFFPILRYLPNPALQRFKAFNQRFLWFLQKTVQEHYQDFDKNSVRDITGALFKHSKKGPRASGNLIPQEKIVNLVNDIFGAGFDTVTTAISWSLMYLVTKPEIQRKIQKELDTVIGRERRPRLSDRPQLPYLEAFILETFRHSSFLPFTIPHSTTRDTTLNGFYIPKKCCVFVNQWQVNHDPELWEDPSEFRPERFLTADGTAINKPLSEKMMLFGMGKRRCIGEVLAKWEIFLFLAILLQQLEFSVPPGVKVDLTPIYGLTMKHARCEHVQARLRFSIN
The data set can be described thus: Inhibition of CYP1A2 in human liver microsomes using phenacetin as substrate preincubated for 10 mins followed by NADPH addition and measured after 10 mins by LC-MS/MS analysis. The format is ADME, Microsome.

Data set [16] in a line: Half-life in male Sprague-Dawley rat at 10 mg/kg, iv measured after 24 hrs by LC-MS/MS analysis. The class given is ADME, organism-based. The note with it: male, Sprague-Dawley, in vivo.
The subject of data set [17] is Mus musculus. The data set can be described thus: Anti-inflammatory activity in LPS-induced male C57BL/6 mouse model of acute […] injury assessed as reduction in infiltration of immune cells by measuring decrease in monocytes count at 2 to 6 mg/kg, IG preadministered with compound for 7 days followed by LPS administration and measured after 24 hrs. The class given is functional, organism-based. The note with it: dose 2-6 mg/kg, time 8.0 day.

Sequence of P2Y purinoceptor 6 (Q15077 whole entry): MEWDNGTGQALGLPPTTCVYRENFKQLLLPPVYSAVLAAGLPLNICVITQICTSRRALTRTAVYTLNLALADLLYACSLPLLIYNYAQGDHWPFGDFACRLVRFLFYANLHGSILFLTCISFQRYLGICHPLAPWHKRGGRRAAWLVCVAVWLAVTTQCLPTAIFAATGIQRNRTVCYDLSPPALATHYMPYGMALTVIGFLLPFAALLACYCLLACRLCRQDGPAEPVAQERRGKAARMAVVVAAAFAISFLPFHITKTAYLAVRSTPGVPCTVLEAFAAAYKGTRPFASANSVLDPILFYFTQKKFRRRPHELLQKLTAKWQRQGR
Sequence of Voltage-gated inwardly rectifying potassium channel KCNH2 (Q12809 whole entry): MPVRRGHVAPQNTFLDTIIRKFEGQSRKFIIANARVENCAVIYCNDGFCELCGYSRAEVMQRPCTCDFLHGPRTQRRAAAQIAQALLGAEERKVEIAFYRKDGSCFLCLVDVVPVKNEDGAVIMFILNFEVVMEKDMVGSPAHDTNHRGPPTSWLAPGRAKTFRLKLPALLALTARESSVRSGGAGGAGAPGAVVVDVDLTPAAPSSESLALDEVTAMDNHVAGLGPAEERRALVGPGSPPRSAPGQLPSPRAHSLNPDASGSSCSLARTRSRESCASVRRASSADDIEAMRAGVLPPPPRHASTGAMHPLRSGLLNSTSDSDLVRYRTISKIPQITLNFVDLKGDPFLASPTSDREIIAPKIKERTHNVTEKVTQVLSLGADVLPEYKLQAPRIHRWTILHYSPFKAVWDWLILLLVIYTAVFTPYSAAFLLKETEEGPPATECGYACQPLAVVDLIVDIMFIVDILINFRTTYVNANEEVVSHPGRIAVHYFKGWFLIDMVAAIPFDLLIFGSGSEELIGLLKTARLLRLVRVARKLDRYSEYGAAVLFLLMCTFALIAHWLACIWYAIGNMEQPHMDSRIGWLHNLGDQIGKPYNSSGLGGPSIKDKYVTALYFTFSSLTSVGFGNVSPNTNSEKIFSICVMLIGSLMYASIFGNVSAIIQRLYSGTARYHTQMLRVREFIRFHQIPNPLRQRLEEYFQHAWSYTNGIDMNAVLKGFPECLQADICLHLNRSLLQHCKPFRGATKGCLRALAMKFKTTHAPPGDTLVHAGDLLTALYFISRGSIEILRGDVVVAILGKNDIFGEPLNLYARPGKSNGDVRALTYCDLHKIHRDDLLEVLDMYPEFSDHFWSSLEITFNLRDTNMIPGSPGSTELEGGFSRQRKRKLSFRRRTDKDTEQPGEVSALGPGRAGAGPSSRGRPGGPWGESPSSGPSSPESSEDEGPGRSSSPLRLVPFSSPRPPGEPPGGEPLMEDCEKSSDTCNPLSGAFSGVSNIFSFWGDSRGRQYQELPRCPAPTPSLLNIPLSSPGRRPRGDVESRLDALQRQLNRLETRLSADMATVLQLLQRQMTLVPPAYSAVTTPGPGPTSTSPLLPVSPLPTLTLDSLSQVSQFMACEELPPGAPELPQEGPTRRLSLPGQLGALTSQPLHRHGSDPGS
Sequence of P2Y purinoceptor 1 (Homo sapiens) (P47900 whole entry): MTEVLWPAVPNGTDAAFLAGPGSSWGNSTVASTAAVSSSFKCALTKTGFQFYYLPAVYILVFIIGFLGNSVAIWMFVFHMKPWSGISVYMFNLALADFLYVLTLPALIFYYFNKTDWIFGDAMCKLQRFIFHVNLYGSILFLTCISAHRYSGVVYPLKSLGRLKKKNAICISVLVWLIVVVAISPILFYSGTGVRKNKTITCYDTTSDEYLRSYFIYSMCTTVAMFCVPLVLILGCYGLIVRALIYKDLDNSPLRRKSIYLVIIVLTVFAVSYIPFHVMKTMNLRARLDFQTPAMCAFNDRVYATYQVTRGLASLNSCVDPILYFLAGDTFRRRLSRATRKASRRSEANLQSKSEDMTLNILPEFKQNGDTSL

Take `O=C(O)CCC(=O)N1N=C(c2ccc[nH]2)CC1c1cnc2ccccc2c1` (stereo unspecified): the result in data set [1] and in data set [11] was inactive. Also, the outcome in the data set on Mus musculus [2], in the data set with Mus musculus [3], with Mus musculus [7], in the data set on Mus musculus [9], in the data set on Mus musculus [10] and in the data set on Mus musculus [13] was Active. The outcome in the data set on Mus musculus [14], in the data set on Mus musculus [15] and in the data set with Mus musculus [17] was Active. Further, the microsomal CLint in [4] came out at 18.6 µL/min/mg. Also, the values for the Cmax in data set [5] and in data set [8] were 1410 ng/mL and 2940 ng/mL, respectively. Moreover, the pIC50 (in general, the negative decadic logarithm of the IC50, by convention in mol/L) in [6] is below 4.30; at Cytochrome P450 2C9, 4.63; against Cytochrome P450 1A2, below 4.30. The pKd – broadly, the Kd on a negative log10 scale, so that one unit is a factor of ten – on P2Y purinoceptor 6 was 5.85. The Activity entry in the data set on HEK-293T was “Non-Toxic”. For the same compound, the half-life (usually the time in which the quantity being followed falls by half) in [12] was 5.2 h; in [16] it was 1.5 h.
